From ChEMBL document CHEMBL1139279, “3,4-Disubstituted indole acylsulfonamides: a novel series of potent and selective human EP3 receptor antagonists” (Bioorg Med Chem Lett, 2009)
Blank lines part the entries; values can stand above or below the compound they belong to.

How the values were obtained:
[1] = molecular target: T1, Prostaglandin E2 receptor EP3 subtype (Homo sapiens, UniProt P43115); assay: Displacement of [3H]PGE2 from human EP3 receptor
T1 sequence (P43115 whole entry): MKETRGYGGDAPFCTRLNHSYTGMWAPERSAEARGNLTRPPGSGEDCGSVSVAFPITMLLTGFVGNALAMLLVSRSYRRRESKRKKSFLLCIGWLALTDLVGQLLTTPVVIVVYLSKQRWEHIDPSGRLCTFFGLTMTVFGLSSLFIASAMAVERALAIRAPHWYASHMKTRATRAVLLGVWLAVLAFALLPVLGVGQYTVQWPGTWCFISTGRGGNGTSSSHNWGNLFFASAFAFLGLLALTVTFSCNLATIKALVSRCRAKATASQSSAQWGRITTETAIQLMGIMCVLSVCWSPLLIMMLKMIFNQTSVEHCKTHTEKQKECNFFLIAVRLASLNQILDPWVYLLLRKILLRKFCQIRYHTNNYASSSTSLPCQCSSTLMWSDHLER

[2] = species: Homo sapiens; assay: Selectivity ratio of IC50 for human EP4 receptor to IC50 for human EP3 receptor
[3] = species: Homo sapiens; assay: Selectivity ratio of IC50 for human EP2 receptor to IC50 for human EP3 receptor
[4] = species: Homo sapiens; assay: Selectivity ratio of IC50 for human EP1 receptor to IC50 for human EP3 receptor
[5] = molecular target: T1, Prostaglandin E2 receptor EP3 subtype; assay: Displacement of [3H]PGE2 from human EP3 receptor in presence of 10% human serum
[6] = species: Homo sapiens; assay: Selectivity ratio of IC50 for human IP receptor to IC50 for human EP3 receptor
[7] = species: Homo sapiens; assay: Selectivity ratio of IC50 for human FP receptor to IC50 for human EP3 receptor
[8] = tested on: Liver microsomes; assay: Metabolic stability in rat liver microsomes at 5 uM after 30 mins; type: ADME, Microsome; details: 0.5 h
[9] = Metabolic stability in human liver microsomes at 5 uM after 30 mins; type: ADME, Microsome; details: read-out: Activity
[10] = molecular target: T1, Prostaglandin E2 receptor EP3 subtype; assay: Antagonist activity at human EP3 receptor assessed as cAMP production by cell-based assay; type: functional
[11] = species: Rattus norvegicus; assay: Ex vivo inhibition of platelet aggregation in rat platelet-rich plasma; type: functional, organism-based
[12] = molecular target: T2, Prostaglandin E2 receptor EP3 subtype (Mus musculus, UniProt P30557); assay: Displacement of [3H]PGE2 from mouse EP3 receptor
T2 sequence (P30557 whole entry): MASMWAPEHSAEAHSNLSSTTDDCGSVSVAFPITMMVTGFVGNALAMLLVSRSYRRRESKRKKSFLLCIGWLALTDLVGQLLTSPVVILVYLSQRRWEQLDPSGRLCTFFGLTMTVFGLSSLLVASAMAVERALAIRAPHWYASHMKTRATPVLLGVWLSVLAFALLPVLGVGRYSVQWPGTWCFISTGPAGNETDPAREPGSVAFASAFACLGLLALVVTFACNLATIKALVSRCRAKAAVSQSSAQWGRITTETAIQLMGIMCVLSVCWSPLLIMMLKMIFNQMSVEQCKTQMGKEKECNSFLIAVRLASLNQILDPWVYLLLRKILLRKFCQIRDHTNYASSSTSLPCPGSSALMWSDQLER

SMILES: O=C(COc1cccc2[nH]cc(Sc3ccc4ccccc4n3)c12)NS(=O)(=O)c1cc(Cl)c(Cl)s1
Activity [8]: 35%
remaining at 0.5 h, 5 µM [9]: 23%

SMILES: O=C(COc1cccc2[nH]cc(Sc3ccc(Cl)c(Cl)c3)c12)NS(=O)(=O)c1cc(Cl)c(Cl)s1
Ratio IC50 [2]: 1770
Ratio IC50 [3]: 950
Ratio IC50 [4]: 10800
Activity [8]: 74%
IC50 [1]: 1.3 nM
remaining at 0.5 h, 5 µM [9]: 46%
IC50 [10]: 0.3 nM
IC50 [11]: 358 nM
fold shift [5]: 1.1
Ratio IC50 [6]: 4480
Ratio IC50 [7]: 596
IC50 [12]: 15.5 nM

SMILES: Cn1c(Sc2c[nH]c3cccc(OCC(=O)NS(=O)(=O)c4cc(Cl)c(Cl)s4)c23)nc2ccccc21
IC50 [1]: 2.5 nM
fold shift [5]: 10.5

SMILES: O=C(COc1cccc2[nH]cc(Sc3ccc4ccccc4c3)c12)NS(=O)(=O)c1cccs1
IC50 [1]: 3 nM
fold shift [5]: 27.5

SMILES: O=C(COc1cccc2[nH]cc(Sc3ccc4ccccc4c3)c12)NS(=O)(=O)c1cccc(Cl)c1
Ratio IC50 [2]: 1360
Ratio IC50 [3]: 1090
Ratio IC50 [4]: 12300
IC50 [1]: 2 nM
fold shift [5]: 2.2
Ratio IC50 [6]: 1300
Ratio IC50 [7]: 1030

SMILES: Cc1nnc(Sc2c[nH]c3cccc(OCC(=O)NS(=O)(=O)c4cc(Cl)c(Cl)s4)c23)s1
IC50 [1]: 36.7 nM

SMILES: O=C(COc1cccc2[nH]cc(S(=O)(=O)c3ccc4ccccc4c3)c12)NS(=O)(=O)c1cccc(Cl)c1
IC50 [1]: 5.9 nM

SMILES: O=C(COc1cccc2[nH]cc(Sc3nc4ccccc4s3)c12)NS(=O)(=O)c1cc(Cl)c(Cl)s1
Ratio IC50 [2]: 2390
Ratio IC50 [3]: 1660
IC50 [1]: 7.6 nM
fold shift [5]: 9.8
Ratio IC50 [6]: 1060
Ratio IC50 [7]: 300

SMILES: Cn1nnnc1Sc1c[nH]c2cccc(OCC(=O)NS(=O)(=O)c3cc(Cl)c(Cl)s3)c12
IC50 [1]: 8.2 nM
fold shift [5]: 58.3

SMILES: O=C(COc1cccc2[nH]cc(Sc3ccc(Cl)cc3Cl)c12)NS(=O)(=O)c1cc(Cl)c(Cl)s1
Ratio IC50 [2]: 8880
Ratio IC50 [3]: 6230
Ratio IC50 [4]: 3520
Activity [8]: 0%
IC50 [1]: 27.6 nM
remaining at 0.5 h, 5 µM [9]: 37%
fold shift [5]: 0.2
Ratio IC50 [6]: 3350
Ratio IC50 [7]: 2030

SMILES: COc1ccc(S(=O)(=O)NC(=O)COc2cccc3[nH]cc(S(=O)(=O)c4ccc5ccccc5c4)c23)cc1
IC50 [1]: 544 nM

SMILES: COc1ccccc1Sc1c[nH]c2cccc(OCC(=O)NS(=O)(=O)c3cc(Cl)c(Cl)s3)c12
IC50 [1]: 24 nM
fold shift [5]: 13.2

SMILES: O=C(COc1cccc2[nH]cc(Sc3ccc4ccccc4c3)c12)NS(=O)(=O)c1ccccc1Cl
IC50 [1]: 1.4 nM
fold shift [5]: 48.7

The next lines start with the values.

IC50 [1]: 236 nM
SMILES: O=C(COc1cccc2[nH]cc(S(=O)(=O)c3nc[nH]n3)c12)NS(=O)(=O)c1cc(Cl)c(Cl)s1

Ratio IC50 [2]: 1860
Ratio IC50 [3]: 1290
Ratio IC50 [4]: 13100
IC50 [1]: 1.3 nM
fold shift [5]: 5.2
Ratio IC50 [6]: 31600
Ratio IC50 [7]: 401
SMILES: Cc1ccc(Sc2c[nH]c3cccc(OCC(=O)NS(=O)(=O)c4cc(Cl)c(Cl)s4)c23)c(C)c1

IC50 [1]: 0.5 nM
fold shift [5]: 22.6
SMILES: COc1ccc(Sc2c[nH]c3cccc(OCC(=O)NS(=O)(=O)c4cc(Cl)c(Cl)s4)c23)cc1

Ratio IC50 [2]: 4220
Ratio IC50 [3]: 1450
Ratio IC50 [4]: 5190
Activity [8]: 68.8%
IC50 [1]: 4.7 nM
remaining at 0.5 h, 5 µM [9]: 69.7%
IC50 [10]: 1 nM
IC50 [11]: 136 nM
fold shift [5]: 3.6
Ratio IC50 [6]: 2710
Ratio IC50 [7]: 384
IC50 [12]: 2 nM
SMILES: O=C(COc1cccc2[nH]cc(S(=O)(=O)c3ccc(Cl)c(Cl)c3)c12)NS(=O)(=O)c1cc(Cl)c(Cl)s1

IC50 [1]: 11.4 nM
SMILES: COc1ccc(S(=O)(=O)c2c[nH]c3cccc(OCC(=O)NS(=O)(=O)c4cc(Cl)c(Cl)s4)c23)cc1OC

IC50 [1]: 20.2 nM
fold shift [5]: 10.7
SMILES: O=C(COc1cccc2[nH]cc(S(=O)(=O)c3ccc(F)cc3Cl)c12)NS(=O)(=O)c1cc(Cl)c(Cl)s1

Activity [8]: 72%
remaining at 0.5 h, 5 µM [9]: 79%
SMILES: O=C(COc1cccc2[nH]cc(S(=O)(=O)c3ccc(Cl)cc3Cl)c12)NS(=O)(=O)c1cc(Cl)c(Cl)s1

IC50 [1]: 5.7 nM
fold shift [5]: 33.2
SMILES: Cc1ccc(S(=O)(=O)c2c[nH]c3cccc(OCC(=O)NS(=O)(=O)c4cc(Cl)c(Cl)s4)c23)c(C)c1

Activity [8]: 98%
remaining at 0.5 h, 5 µM [9]: 75%
SMILES: O=C(COc1cccc2[nH]cc(S(=O)(=O)c3ccc(Cl)cc3)c12)NS(=O)(=O)c1cc(Cl)c(Cl)s1

IC50 [1]: 13.7 nM
fold shift [5]: 5.8
SMILES: O=C(COc1cccc2[nH]cc(Sc3ccccc3Cl)c12)NS(=O)(=O)c1cc(Cl)c(Cl)s1

Activity [8]: 68%
remaining at 0.5 h, 5 µM [9]: 60%
SMILES: O=C(COc1cccc2[nH]cc(S(=O)(=O)c3ccc4ccccc4n3)c12)NS(=O)(=O)c1cc(Cl)c(Cl)s1

IC50 [1]: 27.8 nM
fold shift [5]: 5
SMILES: NC(=O)Cc1ccc(S(=O)(=O)c2c[nH]c3cccc(OCC(=O)NS(=O)(=O)c4cc(Cl)c(Cl)s4)c23)cc1

Activity [8]: 14%
remaining at 0.5 h, 5 µM [9]: 52%
SMILES: O=C(COc1cccc2[nH]cc(Sc3ccc(Cl)cc3)c12)NS(=O)(=O)c1cc(Cl)c(Cl)s1

IC50 [1]: 88.4 nM
SMILES: Cn1nnnc1S(=O)(=O)c1c[nH]c2cccc(OCC(=O)NS(=O)(=O)c3cc(Cl)c(Cl)s3)c12

IC50 [1]: 30 nM
SMILES: COc1ccc(S(=O)(=O)c2c[nH]c3cccc(OCC(=O)NS(=O)(=O)c4cc(Cl)c(Cl)s4)c23)cc1
